# Assay results: PMC10216305, “Introduction of a Polyethylene Glycol Linker Improves Uptake of ^67Cu-NOTA-Conjugated Lactam-Cyclized Alpha-Melanocyte-Stimulating Hormone Peptide in Melanoma” (Cancers, 2023)
# Positions of bridges follow the written chain, without caps; N, C: chain ends. Non-standard residues stand in square brackets, D forms with d. Residues, ends and D or L forms follow the SMILES beside them. *: point of attachment. NOTA = O=C(O)CN1CCN(CC(=O)O)CCN(CC(=O)*)CC1; Nle = CCCC[C@H](N)C(=O)O
# Assay: in vivo
# Set-up: species or system mice
# Conditions: C57, mouse, iv, total radioactivity
# Procedure: All animal studies were conducted in compliance with Institutional Animal Care and Use Committee approval. C57 mice were purchased from Charles River Laboratory (Wilmington, NC). B16/F10 melanoma-bearing C57 mice were generated according to our previous publication. Each melanoma-bearing mouse was injected with 0.037 MBq of ^67Cu-NOTA-PEG2Nle-CycMSHhex or ^67Cu-NOTA-GGNle-CycMSHhex via the tail vein. The tumor uptake specificity of ^67Cu-NOTA-PEG2Nle-CycMSHhex and ^67Cu-NOTA-GGNle-CycMSHhex was determined by co-injecting 10 μg (6.07 nmol) of unlabeled NDP-MSH. Mice were sacrificed at 0.5, 2, 4, and 24 h post-injection, and tumors and organs of interest were harvested, weighed, and counted. The blood value was taken as 6.5% of the whole-body weight.
# [1] = 0.037 MBq, Kidneys uptake (renal uptake)
# [2] = 0.037 MBq, Normal organ uptake, except for kidney uptake
# [3] = 0.037 MBq, Uptake ratio Tumor/blood
# [4] = 0.037 MBq, Uptake ratio Tumor/kidney
# [5] = 0.037 MBq, Uptake ratio Tumor/liver
# [6] = 0.037 MBq, Uptake ratio Tumor/lung
# [7] = 0.037 MBq, Uptake ratio Tumor/muscle
# [8] = 0.037 MBq, Tumor/liver ratio as times the tumor/liver ratio of ^67Cu-NOTA-GGNle-CycMSHhex
compound,measurement,setting,value
"CCCC[C@H](NC(=O)CNC(=O)CNC(=O)CN1CCN(CC(=O)O)CCN(CC(=O)O)CC1)C(=O)N[C@H]1CC(=O)NCCCC[C@@H](C(N)=O)NC(=O)[C@H](Cc2c[nH]c3ccccc23)NC(=O)[C@H](CCCNC(=N)N)NC(=O)[C@@H](Cc2ccccc2)NC(=O)[C@H](Cc2c[nH]cn2)NC1=O [^67Cu-NOTA-GGNle-CycMSHhex, ^67Cu-NOTA-GlyGlyNle-CycMSHhex, metal not drawn] ({NOTA}-GG[Nle]DH[dF]RWK-NH2; lactam 4-9)",tissue uptake dose at 0.5 h,0.037 MBq,1.46 ± 0.49 %ID
same,tissue uptake dose at 2 h,0.037 MBq,1.3 ± 0.27 %ID
same,tissue uptake dose at 4 h,0.037 MBq,2.7 ± 0.26 %ID
same,tissue uptake dose at 24 h,0.037 MBq,0.94 ± 0.32 %ID
same,tissue uptake at 0.5 h,"0.037 MBq, Blood uptake",1.22 ± 0.08 %ID/g
same,tissue uptake at 4 h,"0.037 MBq, Blood uptake",0.06 ± 0.07 %ID/g
same,tissue uptake at 0.5 h,"0.037 MBq, Bone uptake",0.68 ± 0.1 %ID/g
same,tissue uptake at 4 h,"0.037 MBq, Bone uptake",0.06 ± 0.06 %ID/g
same,tissue uptake at 4 h,"0.037 MBq, Brain uptake",0.02 ± 0.03 %ID/g
same,tissue uptake at 24 h,"0.037 MBq, Brain uptake",0.02 ± 0.02 %ID/g
same,tissue uptake at 0.5 h,[1],7.18 ± 2.63 %ID/g
same,tissue uptake at 2 h,[1],5.08 ± 1.52 %ID/g
same,tissue uptake at 4 h,[1],4.21 ± 0.92 %ID/g
same,tissue uptake at 24 h,[1],1.19 ± 0.28 %ID/g
same,tissue uptake at 0.5 h,"0.037 MBq, Liver uptake",1.15 ± 0.07 %ID/g
same,tissue uptake at 2 h,"0.037 MBq, Liver uptake",1.49 ± 0.56 %ID/g
same,tissue uptake at 24 h,"0.037 MBq, Liver uptake",0.82 ± 0.12 %ID/g
same,tissue uptake at 2 h,[2],< 2 %ID/g
same,tissue uptake at 2 h,"0.037 MBq, Pancreas uptake",0.12 ± 0.08 %ID/g
same,tissue uptake at 24 h,"0.037 MBq, Pancreas uptake",0.02 ± 0.01 %ID/g
same,tissue uptake at 24 h,"0.037 MBq, Skin uptake",0.02 ± 0.01 %ID/g
same,tissue uptake at 0.5 h,"0.037 MBq, Spleen uptake",0.52 ± 0.32 %ID/g
same,tissue uptake at 4 h,"0.037 MBq, Spleen uptake",0.12 ± 0.08 %ID/g
same,tissue uptake at 0.5 h,"0.037 MBq, Stomach uptake",1.53 ± 0.53 %ID/g
same,tissue uptake at 2 h,"0.037 MBq, Stomach uptake",0.81 ± 0.14 %ID/g
same,tissue uptake at 0.5 h,"0.037 MBq, Tumor uptake",16.6 ± 1.4 %ID/g
same,tissue uptake at 4 h,"0.037 MBq, Tumor uptake",8.79 ± 1.31 %ID/g
same,tissue to tissue ratio at 0.5 h,[3],13.6
same,tissue to tissue ratio at 2 h,[3],389
same,tissue to tissue ratio at 4 h,[3],146
same,tissue to tissue ratio at 24 h,[3],492
same,tissue to tissue ratio at 0.5 h,[4],2.31
same,tissue to tissue ratio at 2 h,[4],2.29
same,tissue to tissue ratio at 4 h,[4],2.09
same,tissue to tissue ratio at 24 h,[4],4.13
same,tissue to tissue ratio at 0.5 h,[5],14.4
same,tissue to tissue ratio at 2 h,[5],7.83
same,tissue to tissue ratio at 4 h,[5],8.62
same,tissue to tissue ratio at 24 h,[5],6
same,tissue to tissue ratio at 0.5 h,[6],30.7
same,tissue to tissue ratio at 2 h,[6],28.4
same,tissue to tissue ratio at 4 h,[6],23.8
same,tissue to tissue ratio at 24 h,[6],18.2
same,tissue to tissue ratio at 0.5 h,[7],32.5
same,tissue to tissue ratio at 2 h,[7],292
same,tissue to tissue ratio at 4 h,[7],879
same,tissue to tissue ratio at 24 h,[7],492
same,tissue uptake dose at 2 h,,1.48 ± 0.17 %ID
same,tissue to tissue ratio at 2 h,Uptake ratio Tumor/kidney,0.19
same,tissue to tissue ratio at 2 h,Uptake ratio Tumor/liver,0.92
same,tissue to tissue ratio at 2 h,Uptake ratio Tumor/lung,2.44
"CCCC[C@H](NC(=O)COCCOCCNC(=O)CN1CCN(CC(=O)O)CCN(CC(=O)O)CC1)C(=O)N[C@H]1CC(=O)NCCCC[C@@H](C(N)=O)NC(=O)[C@H](Cc2c[nH]c3ccccc23)NC(=O)[C@H](CCCNC(=N)N)NC(=O)[C@@H](Cc2ccccc2)NC(=O)[C@H](Cc2c[nH]cn2)NC1=O [^67Cu-NOTA-PEG2Nle-CycMSHhex, ^67Cu-1,4,7-triazacyclononane-1,4,7-triyl-triacetic acid-polyethylene glycol-Nle-c[Asp-His-DPhe-Arg-Trp-Lys]-CONH2, metal not drawn]",tissue uptake dose at 0.5 h,0.037 MBq,0.83 ± 0.09 %ID
same,tissue uptake dose at 2 h,0.037 MBq,0.95 ± 0.16 %ID
same,tissue uptake dose at 24 h,0.037 MBq,0.77 ± 0.12 %ID
same,tissue uptake at 0.5 h,"0.037 MBq, Blood uptake",0.63 ± 0.26 %ID/g
same,tissue uptake at 0.5 h,"0.037 MBq, Bone uptake",0.6 ± 0.35 %ID/g
same,tissue uptake at 0.5 h,"0.037 MBq, Brain uptake",0.04 ± 0.02 %ID/g
same,tissue uptake at 24 h,"0.037 MBq, Brain uptake",0.04 ± 0.03 %ID/g
same,tissue uptake at 0.5 h,"0.037 MBq, Heart uptake",0.58 ± 0.18 %ID/g
same,tissue uptake at 2 h,"0.037 MBq, Heart uptake",0.79 ± 0.06 %ID/g
same,tissue uptake at 4 h,"0.037 MBq, Heart uptake",0.34 ± 0.08 %ID/g
same,tissue uptake at 0.5 h,[1],6.43 ± 1.31 %ID/g
same,tissue uptake at 2 h,[1],6.34 ± 1.63 %ID/g
same,tissue uptake at 4 h,[1],2.6 ± 0.79 %ID/g
same,tissue uptake at 0.5 h,"0.037 MBq, Liver uptake",0.95 ± 0.19 %ID/g
same,tissue uptake at 2 h,"0.037 MBq, Liver uptake",1.09 ± 0.14 %ID/g
same,tissue uptake at 4 h,"0.037 MBq, Liver uptake",1.41 ± 0.26 %ID/g
same,tissue uptake at 24 h,"0.037 MBq, Liver uptake",0.84 ± 0.15 %ID/g
same,tissue uptake at 0.5 h,"0.037 MBq, Lung uptake",0.76 ± 0.16 %ID/g
same,tissue uptake at 4 h,"0.037 MBq, Lung uptake",0.62 ± 0.18 %ID/g
same,tissue uptake at 0.5 h,"0.037 MBq, Muscle uptake",0.48 ± 0.12 %ID/g
same,tissue uptake at 2 h,[2],< 2 %ID/g
same,tissue uptake at 4 h,[2],< 2.6 %ID/g
same,tissue uptake at 0.5 h,"0.037 MBq, Skin uptake",1.77 ± 0.28 %ID/g
same,tissue uptake at 4 h,"0.037 MBq, Skin uptake",0.18 ± 0.07 %ID/g
same,tissue uptake at 0.5 h,"0.037 MBq, Spleen uptake",0.37 ± 0.1 %ID/g
same,tissue uptake at 0.5 h,"0.037 MBq, Stomach uptake",1.13 ± 0.36 %ID/g
same,tissue uptake at 0.5 h,"0.037 MBq, Tumor uptake",8.83 ± 2.19 %ID/g
same,tissue uptake at 4 h,"0.037 MBq, Tumor uptake",24.1 ± 1.83 %ID/g
same,tissue uptake at 24 h,"0.037 MBq, Tumor uptake",9.13 ± 1.66 %ID/g
same,tissue to tissue ratio at 2 h,[8],3.3
same,tissue to tissue ratio at 4 h,[8],2
same,tissue to tissue ratio at 24 h,[8],1.8
same,tissue to tissue ratio at 4 h,[3],482
same,tissue to tissue ratio at 24 h,[3],456
same,tissue to tissue ratio at 0.5 h,[4],1.37
same,tissue to tissue ratio at 2 h,[4],4.41
same,tissue to tissue ratio at 4 h,[4],9.27
same,tissue to tissue ratio at 24 h,[4],10.1
same,tissue to tissue ratio at 0.5 h,[5],9.29
same,tissue to tissue ratio at 2 h,[5],25.7
same,tissue to tissue ratio at 4 h,[5],17.1
same,tissue to tissue ratio at 0.5 h,[6],11.6
same,tissue to tissue ratio at 2 h,[6],52.8
same,tissue to tissue ratio at 4 h,[6],38.9
same,tissue to tissue ratio at 24 h,[6],26.1
same,tissue to tissue ratio at 0.5 h,[7],18.4
same,tissue to tissue ratio at 2 h,[7],34.5
same,tissue to tissue ratio at 4 h,[7],803
same,tissue to tissue ratio at 24 h,[7],913
same,tissue uptake dose at 2 h,,2.09 ± 0.96 %ID
same,tissue to tissue ratio at 2 h,Uptake ratio Tumor/kidney,0.34
same,tissue to tissue ratio at 2 h,Uptake ratio Tumor/liver,0.98
same,tissue to tissue ratio at 2 h,Uptake ratio Tumor/lung,2.44
same,tissue to tissue ratio at 2 h,Uptake ratio Tumor/muscle,166
